From article PMC7123778 (ACS infectious diseases, 2019)

What was measured:
H. pylori G27 = details: H. pylori G27, liquid media; cited from earlier work
[1] = cited from earlier work
rat liver TrxR = biological target: T1, rat liver TrxR (Rattus norvegicus, UniProt O89049); assay: TrxR inhibition assay; type: biochemical; details: purified rat liver TrxR, DTNB, ΔA412 after 10 minutes
T1 sequence (O89049 1-499): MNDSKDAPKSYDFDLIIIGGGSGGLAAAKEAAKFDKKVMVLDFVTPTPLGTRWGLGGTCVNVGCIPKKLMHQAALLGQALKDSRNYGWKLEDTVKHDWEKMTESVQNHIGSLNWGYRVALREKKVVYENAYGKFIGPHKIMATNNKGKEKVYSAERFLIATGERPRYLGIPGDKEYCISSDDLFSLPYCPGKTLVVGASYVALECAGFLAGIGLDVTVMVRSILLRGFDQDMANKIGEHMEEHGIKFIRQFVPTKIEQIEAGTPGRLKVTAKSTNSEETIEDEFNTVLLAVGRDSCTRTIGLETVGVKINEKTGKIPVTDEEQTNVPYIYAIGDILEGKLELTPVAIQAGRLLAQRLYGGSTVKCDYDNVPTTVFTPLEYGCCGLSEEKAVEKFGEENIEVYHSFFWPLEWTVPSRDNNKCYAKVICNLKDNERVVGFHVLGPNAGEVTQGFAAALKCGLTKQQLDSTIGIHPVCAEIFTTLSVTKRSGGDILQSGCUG

free thiols in H. pylori = assay: Free thiol depletion assay; type: cell-based, Helicobacter pylori; details: H. pylori treated with 5.0 μM for four hours

Row | SMILES | previously reported MIC (H. pylori G27) | logP [1] | half maximal inhibitory concentration (IC50) of TrxR (rat liver TrxR) | free thiol concentration in comparison to untreated samples (free thiols in H. pylori)
1 | CC(=O)OC[C@H]1O[C@@H]([S-])[C@H](OC(C)=O)[C@@H](OC(C)=O)[C@@H]1OC(C)=O.CCP(CC)CC.[Au+] [Compound 1, auranofin] | 1.2 µM | 0.56 |  | 
2 | CC(=O)NC1C([S][Au][PH](C)(C)C)OC(CO)C(O)C1O (centres unmarked) [Compound 6] |  | −2.03 | inhibited TrxR most effectively | 
3 | CC1(C)S[C@@H]2[C@H](NC(=O)[C@H](N)c3ccc(O)cc3)C(=O)N2[C@H]1C(=O)O [amoxicillin] |  |  |  | no differences in free thiol concentrations
